Measurements reported in article PMC10432564, “Pharmacological perturbation of the phase-separating protein SMNDC1” (Nature Communications, 2023).
pIC50: −log10 of the molar value.

Experiments:
SMN-RFP intron 5-6, αTC1 = assay: Live imaging of SMN-RFP; assay type: cell-based, mouse; details: 50 µM, 16 h
Description: Cell lines with fluorescent tags in the endogenous intron loci of different genes were generated as described in Serebrenik et al., and Reicher et al.[39],[74]. Cells were transiently transfected using Avalanche-Everyday Transfection Reagent with three plasmids in parallel: (1) the donor plasmid containing the artificial intron with splice acceptor and splice donor site, the fluorescent tag GFP or RFP, and a possible correction for the frame of the targeted intron, (2) a pX330 backbone containing Cas9 and the gRNA against the donor plasmid, and (3) a plasmid expressing the gRNA against the target intron (see table below). After 3–5 days, GFP- and/or RFP-positive cells were sorted on a SONY SH800 Cell Sorter to get fluorescent single cell clones. […]
Images were analyzed using the high-content image acquisition and analysis software Harmony® 4.9 developed by PerkinElmer. […] Even though the highest staining of these nuclear markers is obviously detected in the nucleus they still produce a significant staining of the cytoplasm above background. After defining the respective cell areas, mean intensity in the different channels was measured. […]

[1] = test system: SMNDC1-GFP intron 2-3, SRRM2-RFP intron 9-10, αTC1-clone; assay: Fluorescence recovery after photobleaching (FRAP); assay type: cell-based, mouse; details: 50 µM, 15-45 min
Procedure: For FRAP experiments, cells harboring intron-tags in SMNDC1 and SRRM2 were seeded 24 h before imaging on a Zeiss LSM 980 microscope. 15 min before imaging, medium was changed to medium without phenol red containing DRAQ5^TM 1:1000 to reduce autofluorescence and to mark nuclei. If cells were treated with compounds, these were added in the same step. After identifying a suitable cell, bleach and reference regions were defined. After taking one reference image, the bleach region was bleached 15 times for 5 milliseconds with 100% laser power at 488 nm for GFP and with 20% laser power at 546 nm for RFP. After bleaching, a new image was taken approximately every 3 s until 150 s after bleaching. Fluorescence intensities were quantified in the bleach and reference regions for every image and normalized to the intensity before bleaching.

αTC1 cells = assay: Alternative splicing, RNA sequencing (VAST-TOOLS) and RT-PCR; assay type: cell-based, mouse
Procedure: To perform splicing PCRs, RNA was isolated from pelleted cells using the RNeasy Mini Kit (Qiagen, #74106).
RNA sequencing libraries were prepared from low-input samples using the Smart-seq2 protocol. The subsequent library preparation from the amplified cDNA was performed using the Nextera XT DNA library prep kit (Illumina, San Diego, CA, USA). Library concentrations were quantified with the Qubit 2.0 Fluorometric Quantitation system (Life Technologies, Carlsbad, CA, USA) and the size distribution was assessed using the Experion Automated Electrophoresis System (Bio-Rad, Hercules, CA, USA). For sequencing, samples were diluted and pooled into NGS libraries in equimolar amounts.
Alternative splicing events were characterized and quantified using VAST-TOOLS[54] (2.5.1) in conjunction with the Mus musculus database (vastdb.mm2.23.06.20), based on the Genome Reference Consortium assembly GRCm38.p5 and Ensembl transcript annotation 88 (March 2017). Briefly, NGS reads were aligned for each read group independently, read groups were merged into samples and samples were combined into a summary table. […]

SMN Tudor domain = SMN Tudor domain (Homo sapiens, UniProt Q16637); assay: AlphaScreen, SMN Tudor domain / sDMA-peptide interaction
Chain of SMN Tudor domain (Q16637 84-147): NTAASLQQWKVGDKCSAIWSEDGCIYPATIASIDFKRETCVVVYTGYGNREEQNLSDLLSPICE
Procedure: To establish an AlphaScreen[50], we coupled donor beads to purified SMNDC1’s (or SMN’s) Tudor domain via a His-Tag and acceptor beads to a biotinylated peptide corresponding to the C-terminal region of the Small nuclear ribonucleoprotein Sm D3 containing four sDMAs (Fig. 4a). […] To identify ideal concentrations for screening, we performed a cross-titration of Tudor domains and binding peptides (Supplementary Fig. 3b).
The AlphaScreen was conducted in 20 mM sodium phosphate pH 6.5, 50 mM NaCl, Tween 0.01%, BSA 0.1%. Protein concentration was optimized for each batch of purified protein. Optimal concentration was chosen at the lowest concentration with ~80% of maximum signal. […] In the first step, 10 µl of the protein solution containing either SMNDC1’s or SMN’s Tudor domain coupled to a 6xHis-Tag were distributed to 384-well plates pre-spotted with compounds and controls, shaken and incubated for 30 min at RT. Afterwards, 10 µl of peptide solution was added to each well and incubated for 1 h at RT. Finally, 5 µl of a solution containing both Streptavidin Donor and nickel chelate (Ni-NTA) Acceptor beads was added and again incubated for 1 h at RT.

CN(C)S(=O)(=O)c1ccc(C(=O)Nc2nc(-c3ccccn3)cs2)cc1 [compound 1]
number of SMN spots in the cytoplasm (SMN-RFP intron 5-6, αTC1): increased | overall intensity of SMN (SMN-RFP intron 5-6, αTC1): decreased | recovery after photobleaching of SMNDC1 and SRRM2 [1]: lower recovery after photobleaching | alternatively spliced isoforms by RT-PCR, long-term low-dose treatment (αTC1 cells; 2 µM over 5 days): could also see the effect | alternative splicing events (αTC1 cells; paired-end RNA sequencing, compound over DMSO): increased retention of introns and skipping of exons | pIC50 (SMN Tudor domain): 6.06
